Calls of active or inactive are those of the source. The calls are words filed in the database; no cut-off is given here.

By IC50 is commonly meant the concentration needed to halve the response being measured.

Experiment [1] has as its target T1, Indoleamine 2,3-dioxygenase 1 (Homo sapiens, UniProt P14902). The experiment can be described thus: Inhibition of human recombinant IDO1 assessed as reduction in N-formylkynurenine formation using L-tryptophan as substrate preincubated for 30 mins followed by substrate addition and measured after 10 mins by SpectraMax microplate reader analysis.
Experiment [2] has as its system A549. The experiment is described as follows: Antimigratory activity against NAMPT inhibitor-resistant A549 cells assessed as reduction in cell migration at 40 uM incubated for 24 hrs in presence of FK866 by inverted microscopic analysis. Format: functional, cell-based. As to conditions: Homo sapiens.
For experiment [3], the system named is A549. The experiment is described as follows: cells. The note with it: Homo sapiens, A549, 48 h.
Experiment [4] deals with A549. The experiment is described as follows: cells. As to conditions: Homo sapiens, A549, 48 h. The source holds these as a separate data set.
Experiment [5] relates to A549. The experiment can be described thus: Downregulation of IDO1 expression in NAMPT inhibitor-resistant A549 cells measured for 24 hrs by Western blot analysis. As to conditions: Homo sapiens, dose 5-10 µM. It is filed as functional, cell-based.
The target of experiment [6] is Nicotinamide phosphoribosyltransferase (Homo sapiens, UniProt P43490). The experiment is described as follows: Inhibition of recombinant NAMPT (unknown origin) incubated for 60 mins by SpectraMax microplate reader analysis.
Sequence of Nicotinamide phosphoribosyltransferase (P43490 whole entry): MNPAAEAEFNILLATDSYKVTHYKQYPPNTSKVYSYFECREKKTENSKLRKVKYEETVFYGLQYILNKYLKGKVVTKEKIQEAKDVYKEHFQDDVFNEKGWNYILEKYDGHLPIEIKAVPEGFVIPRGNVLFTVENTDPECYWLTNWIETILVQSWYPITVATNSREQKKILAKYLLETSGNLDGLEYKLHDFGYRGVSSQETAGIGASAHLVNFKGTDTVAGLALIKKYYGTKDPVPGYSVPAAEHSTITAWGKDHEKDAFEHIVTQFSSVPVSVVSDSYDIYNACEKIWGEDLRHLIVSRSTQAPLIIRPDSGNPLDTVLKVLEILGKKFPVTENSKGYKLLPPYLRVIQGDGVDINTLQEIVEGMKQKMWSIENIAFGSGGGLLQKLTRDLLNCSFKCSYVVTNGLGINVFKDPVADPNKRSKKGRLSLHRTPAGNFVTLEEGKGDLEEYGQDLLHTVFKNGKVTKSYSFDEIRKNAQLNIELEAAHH
The target of experiment [7] is T1, Indoleamine 2,3-dioxygenase 1. The experiment can be described thus: Inhibition of human recombinant IDO1 in human HeLa cells assessed as reduction in N-formylkynurenine formation using L-tryptophan as substrate preincubated for 24 hrs followed by substrate addition and measured after 30 mins. It is filed as cell-based.
Experiment [8] relates to A549. The experiment is described as follows: Antiproliferative activity against NAMPT inhibitor-resistant A549 cells assessed as reduction in cell viability measured for 48 hrs in presence of epacadostat by CCK-8 assay. It is filed as functional, cell-based. As to conditions: Homo sapiens, A549, 48 h. A general note: Tetrazolium assays rely on reduction of a dye to a coloured formazan, in cell work by metabolically active cells.

T1 sequence (P14902 whole entry): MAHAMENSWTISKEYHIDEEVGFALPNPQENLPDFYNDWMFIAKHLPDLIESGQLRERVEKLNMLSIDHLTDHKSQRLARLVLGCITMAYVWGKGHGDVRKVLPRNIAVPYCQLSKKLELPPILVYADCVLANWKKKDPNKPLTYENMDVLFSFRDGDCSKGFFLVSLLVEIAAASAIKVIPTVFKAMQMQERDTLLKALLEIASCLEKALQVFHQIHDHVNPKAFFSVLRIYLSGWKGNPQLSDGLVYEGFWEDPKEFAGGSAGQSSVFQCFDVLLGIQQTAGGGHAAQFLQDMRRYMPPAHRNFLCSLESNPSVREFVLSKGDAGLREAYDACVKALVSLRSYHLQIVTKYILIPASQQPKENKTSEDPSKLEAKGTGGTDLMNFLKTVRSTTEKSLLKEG

As for `O=C(c1ccc2nccn2c1)N1CCC(CCNc2nonc2/C(=N/O)Nc2ccc(F)c(Br)c2)CC1`, the IC50 in experiment [1] was more than 1000 nM.
Regarding `NS(=O)(=O)NCCNc1nonc1/C(=N/O)Nc1ccc(F)c(Br)c1` [EPACADOSTAT], the result in experiment [2] was Active. The IC50 is 34500 nM in experiment [3] and 61100 nM in experiment [4]. Also, the outcome in experiment [5] was inactive.
As to `O=C(NCc1ccc(CNc2nonc2/C(=N/O)Nc2ccc(F)c(Br)c2)cc1)c1ccc2nccn2c1`, the half-maximal inhibitory concentration (IC50) is more than 1000 nM in experiment [1] and 4880 nM in experiment [6].
Regarding `O=C(CCCNc1nonc1/C(=N/O)Nc1ccc(F)c(Br)c1)Nc1ccc(CNC(=O)c2ccc3nccn3c2)cc1`, the half-inhibitory concentration (IC50) in experiment [1] is 730 nM; in experiment [6], more than 10000 nM; in experiment [7], 663 nM.
Take `O=C(CCCCNc1nonc1/C(=N/O)Nc1ccc(F)c(Br)c1)Nc1ccc(CNC(=O)c2ccc3nccn3c2)cc1`: the 50% inhibitory concentration (IC50) in experiment [1] was found to be 750 nM; in experiment [7] it was 649 nM.
`O=C(NCc1ccc(C(=O)N2CCC(CCNc3nonc3/C(=N/O)Nc3ccc(F)c(Br)c3)CC2)cc1)c1ccc2nccn2c1`: in experiment [1], the IC50 was more than 1000 nM.
As to `O=C(NCCCNc1nonc1/C(=N/O)Nc1ccc(F)c(Br)c1)c1ccc2nccn2c1`, the IC50 in experiment [1] and in experiment [7] was more than 1000 nM throughout.
On to `O=C(/C=C/c1cccnc1)NCCCCC1CCN(C(=O)c2ccccc2)CC1` [DAPORINAD], for which the results for the IC50 in experiment [4] and in experiment [8] were 52200 nM and 34500 nM, respectively.

(Values after ChEMBL document CHEMBL5316301, “Dual Nicotinamide Phosphoribosyltransferase (NAMPT) and Indoleamine 2,3-Dioxygenase 1 (IDO1) Inhibitors for the Treatment of Drug-Resistant Nonsmall-Cell Lung Cancer” (J Med Chem, 2023).)
